Assay results published in ChEMBL document CHEMBL1201862, “PubChem BioAssay data set” (2004).
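Compound exposure: 48 hours, 5 concentrations, 96-well plates. GI50 marks 50% less growth.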 The source made the active and inactive calls. No stated cut-off is given here; in the data, active = GI50 up to about 1.1 µM and inactive = higher.

Legend:
Assay in all cases: inhibition of tumour cell growth, NCI panel, 48 h
786-0 = tested on: 786-0
A498 = tested on: A498
A549 = tested on: A549
ACHN = tested on: ACHN
BT-549 = tested on: BT-549
CAKI-1 = tested on: CAKI-1
CCRF-CEM = tested on: CCRF-CEM
COLO 205 = tested on: COLO 205
DU-145 = tested on: DU-145
EKVX = tested on: EKVX
HCC 2998 = tested on: HCC 2998
HCT-116 = tested on: HCT-116
HCT-15 = tested on: HCT-15
HL-60 = tested on: HL-60
HOP-62 = tested on: HOP-62
HOP-92 = tested on: HOP-92
HT-29 = tested on: HT-29
Hs-578T = tested on: Hs-578T
IGROV-1 = tested on: IGROV-1
K562 = tested on: K562
KM12 = tested on: KM12
LOX IMVI = tested on: LOX IMVI
M14 = tested on: M14
MCF7 = tested on: MCF7
MDA-MB-231 = tested on: MDA-MB-231
MDA-MB-435 = tested on: MDA-MB-435
MDA-N = tested on: MDA-N
MOLT-4 = tested on: MOLT-4
Malme-3M = tested on: Malme-3M
NCI-H23 = tested on: NCI-H23
NCI-H460 = tested on: NCI-H460
NCI-H522 = tested on: NCI-H522
NCI/ADR-RES = tested on: NCI/ADR-RES
OVCAR-3 = tested on: OVCAR-3
OVCAR-4 = tested on: OVCAR-4
OVCAR-5 = tested on: OVCAR-5
OVCAR-8 = tested on: OVCAR-8
PC-3 = tested on: PC-3
RPMI-8226 = tested on: RPMI-8226
RXF 393 = tested on: RXF 393
SF-268 = tested on: SF-268
SF-295 = tested on: SF-295
SF-539 = tested on: SF-539
SK-MEL-28 = tested on: SK-MEL-28
SK-MEL-2 = tested on: SK-MEL-2
SK-MEL-5 = tested on: SK-MEL-5
SK-OV-3 = tested on: SK-OV-3
SN12C = tested on: SN12C
SNB-19 = tested on: SNB-19
SNB-75 = tested on: SNB-75
SW-620 = tested on: SW-620
T47D = tested on: T47D
TK-10 = tested on: TK-10
U-251 = tested on: U-251
UACC-257 = tested on: UACC-257
UACC-62 = tested on: UACC-62
UO-31 = tested on: UO-31
NCI-H226 = tested on: NCI-H226

For `N/C(=N\NC(=O)c1nc2ccccc2s1)c1ccccn1`, the GI50 (786-0) was 4.33 µM (inactive), the GI50 (A498) was 8.34 µM (inactive) and the GI50 (A549) was 3.19 µM (inactive). For the same compound, the GI50 (ACHN) was 2.87 µM (inactive), the GI50 (BT-549) was 31.3 µM (inactive) and the GI50 (CAKI-1) was 1.55 µM (inactive). For the same compound, the GI50 (CCRF-CEM) was 2.42 µM (inactive), the GI50 (COLO 205) was 4.73 µM (inactive) and the GI50 (DU-145) was 4.27 µM (inactive). The GI50 (EKVX) was 3.68 µM (inactive), the GI50 (HCC 2998) was 8.17 µM (inactive) and the GI50 (HCT-116) was 3.28 µM (inactive). The GI50 (HCT-15) was 2.56 µM, the GI50 (HL-60) was 0.452 µM (active) and the GI50 (HOP-62) was 10.3 µM (inactive). For the same compound, the GI50 (HOP-92) was > 34 µM (inactive), the GI50 (HT-29) was 4.08 µM (inactive) and the GI50 (Hs-578T) was > 100 µM (inactive). The GI50 (IGROV-1) was 12.8 µM (inactive), the GI50 (K562) was 4.5 µM (inactive) and the GI50 (KM12) was 8.79 µM (inactive). For the same compound, the GI50 (LOX IMVI) was 4.93 µM (inactive), the GI50 (M14) was 3.01 µM (inactive) and the GI50 (MCF7) was 4.39 µM (inactive). The GI50 (MDA-MB-231) was 14 µM (inactive), the GI50 (MDA-MB-435) was 7.1 µM (inactive) and the GI50 (MDA-N) was 11.7 µM (inactive). The GI50 (MOLT-4) was 1.29 µM (inactive), the GI50 (Malme-3M) was 30 µM (inactive) and the GI50 (NCI-H23) was 9.86 µM (inactive). For the same compound, the GI50 (NCI-H460) was 2.85 µM (inactive), the GI50 (NCI-H522) was 13.8 µM (inactive) and the GI50 (NCI/ADR-RES) was 1.11 µM (active). The GI50 (OVCAR-3) was 3.92 µM (inactive), the GI50 (OVCAR-4) was 0.706 µM (active) and the GI50 (OVCAR-5) was 5.89 µM (inactive). The GI50 (OVCAR-8) was 5.33 µM (inactive), the GI50 (PC-3) was 9.31 µM (inactive) and the GI50 (RPMI-8226) was 2.46 µM (inactive). The GI50 (RXF 393) was 7.96 µM (inactive), the GI50 (SF-268) was 6.87 µM (inactive) and the GI50 (SF-295) was 3.83 µM (inactive). For the same compound, the GI50 (SF-539) was 3.59 µM (inactive), the GI50 (SK-MEL-28) was 43.2 µM (inactive) and the GI50 (SK-MEL-2) was 19.5 µM (inactive). The GI50 (SK-MEL-5) was 4.24 µM (inactive), the GI50 (SK-OV-3) was 9.79 µM (inactive) and the GI50 (SN12C) was 1.61 µM (inactive). The GI50 (SNB-19) was 16 µM (inactive), the GI50 (SNB-75) was 7.74 µM (inactive) and the GI50 (SW-620) was 6.82 µM (inactive). For the same compound, the GI50 (T47D) was 10.6 µM (inactive), the GI50 (TK-10) was 7.8 µM (inactive) and the GI50 (U-251) was 4.79 µM (inactive). For the same compound, the GI50 (UACC-257) was 15.6 µM (inactive), the GI50 (UACC-62) was 3.95 µM (inactive) and the GI50 (UO-31) was 2.26 µM (inactive).

In the case of `Cn1c(=O)c2c(nc3sc4ncccc4c(=O)n32)n(C)c1=O`, the GI50 (786-0) is reported as > 100 µM (inactive), the GI50 (A498) is reported as > 100 µM (inactive) and the GI50 (ACHN) is reported as > 100 µM (inactive). For the same compound, the GI50 (BT-549) was > 100 µM (inactive), the GI50 (CAKI-1) was > 100 µM (inactive) and the GI50 (CCRF-CEM) was > 100 µM (inactive). The GI50 (COLO 205) was > 100 µM (inactive), the GI50 (DU-145) was > 100 µM (inactive) and the GI50 (EKVX) was > 100 µM (inactive). For the same compound, the GI50 (HCC 2998) was > 100 µM (inactive), the GI50 (HCT-116) was > 100 µM (inactive) and the GI50 (HCT-15) was greater than 100 µM. For the same compound, the GI50 (HL-60) was > 100 µM (inactive), the GI50 (HOP-62) was > 100 µM (inactive) and the GI50 (HOP-92) was > 100 µM (inactive). For the same compound, the GI50 (HT-29) was > 100 µM (inactive), the GI50 (Hs-578T) was > 100 µM (inactive) and the GI50 (IGROV-1) was > 100 µM (inactive). For the same compound, the GI50 (KM12) was > 100 µM (inactive), the GI50 (LOX IMVI) was > 100 µM (inactive) and the GI50 (M14) was > 100 µM (inactive). For the same compound, the GI50 (MCF7) was > 100 µM (inactive), the GI50 (MDA-MB-231) was > 100 µM (inactive) and the GI50 (MDA-MB-435) was > 100 µM (inactive). The GI50 (MDA-N) was > 100 µM (inactive), the GI50 (MOLT-4) was > 100 µM (inactive) and the GI50 (NCI-H226) was > 100 µM (inactive). For the same compound, the GI50 (NCI-H23) was > 100 µM (inactive), the GI50 (NCI-H460) was > 100 µM (inactive) and the GI50 (NCI/ADR-RES) was > 100 µM (inactive). The GI50 (OVCAR-3) was > 100 µM (inactive), the GI50 (OVCAR-4) was > 100 µM (inactive) and the GI50 (OVCAR-5) was > 100 µM (inactive). For the same compound, the GI50 (OVCAR-8) was > 100 µM (inactive), the GI50 (PC-3) was > 100 µM (inactive) and the GI50 (RPMI-8226) was > 100 µM (inactive). The GI50 (RXF 393) was > 100 µM (inactive), the GI50 (SF-268) was > 100 µM (inactive) and the GI50 (SF-295) was > 100 µM (inactive). The GI50 (SF-539) was > 100 µM (inactive), the GI50 (SK-MEL-28) was > 100 µM (inactive) and the GI50 (SK-MEL-2) was > 100 µM (inactive). For the same compound, the GI50 (SK-MEL-5) was > 100 µM (inactive), the GI50 (SK-OV-3) was > 100 µM (inactive) and the GI50 (SN12C) was > 100 µM (inactive). The GI50 (SNB-19) was > 100 µM (inactive), the GI50 (SNB-75) was > 100 µM (inactive) and the GI50 (SW-620) was > 100 µM (inactive). The GI50 (T47D) was > 100 µM (inactive), the GI50 (TK-10) was > 100 µM (inactive) and the GI50 (U-251) was > 100 µM (inactive). The GI50 (UACC-257) was > 100 µM (inactive), the GI50 (UACC-62) was > 100 µM (inactive) and the GI50 (UO-31) was 81.1 µM (inactive).

For `O=c1c(C(c2ccc(/C=C/c3ccccc3)cc2)c2c(O)oc3cc(O)ccc3c2=O)c(O)oc2cc(O)ccc12`, the GI50 (786-0) was > 100 µM (inactive), the GI50 (A498) was > 100 µM (inactive) and the GI50 (A549) was > 100 µM (inactive). The GI50 (ACHN) was > 100 µM (inactive), the GI50 (BT-549) was 98.9 µM (inactive) and the GI50 (CAKI-1) was 55.3 µM (inactive). The GI50 (CCRF-CEM) was 37.6 µM (inactive), the GI50 (COLO 205) was > 100 µM (inactive) and the GI50 (DU-145) was > 100 µM (inactive). The GI50 (EKVX) was > 100 µM (inactive), the GI50 (HCC 2998) was > 100 µM (inactive) and the GI50 (HCT-116) was > 100 µM (inactive). For the same compound, the GI50 (HCT-15) was greater than 100 µM, the GI50 (HL-60) was 27.5 µM (inactive) and the GI50 (HOP-62) was > 100 µM (inactive). The GI50 (HOP-92) was 75.2 µM (inactive), the GI50 (HT-29) was > 100 µM (inactive) and the GI50 (Hs-578T) was 56.6 µM (inactive). The GI50 (IGROV-1) was > 100 µM (inactive), the GI50 (K562) was 91.4 µM (inactive) and the GI50 (KM12) was > 100 µM (inactive). For the same compound, the GI50 (LOX IMVI) was 36.7 µM (inactive), the GI50 (M14) was > 100 µM (inactive) and the GI50 (MCF7) was 49.9 µM (inactive). The GI50 (MDA-MB-231) was > 100 µM (inactive), the GI50 (MDA-MB-435) was 82.2 µM (inactive) and the GI50 (MDA-N) was 53.5 µM (inactive). For the same compound, the GI50 (MOLT-4) was 20.9 µM (inactive), the GI50 (Malme-3M) was > 100 µM (inactive) and the GI50 (NCI-H226) was > 100 µM (inactive). For the same compound, the GI50 (NCI-H23) was > 100 µM (inactive), the GI50 (NCI-H460) was > 100 µM (inactive) and the GI50 (NCI-H522) was 52 µM (inactive). The GI50 (NCI/ADR-RES) was > 100 µM (inactive), the GI50 (OVCAR-3) was > 100 µM (inactive) and the GI50 (OVCAR-4) was > 100 µM (inactive). For the same compound, the GI50 (OVCAR-5) was > 100 µM (inactive), the GI50 (OVCAR-8) was 98.6 µM (inactive) and the GI50 (PC-3) was > 100 µM (inactive). The GI50 (RPMI-8226) was 39.6 µM (inactive), the GI50 (RXF 393) was > 100 µM (inactive) and the GI50 (SF-268) was 33.7 µM (inactive). The GI50 (SF-295) was > 100 µM (inactive), the GI50 (SF-539) was > 100 µM (inactive) and the GI50 (SK-MEL-28) was 11.3 µM (inactive). For the same compound, the GI50 (SK-MEL-2) was > 100 µM (inactive), the GI50 (SK-MEL-5) was 21.8 µM (inactive) and the GI50 (SK-OV-3) was > 100 µM (inactive). For the same compound, the GI50 (SN12C) was 48.4 µM (inactive), the GI50 (SNB-19) was > 100 µM (inactive) and the GI50 (SNB-75) was 29 µM (inactive). For the same compound, the GI50 (SW-620) was 91.8 µM (inactive), the GI50 (T47D) was 52.6 µM (inactive) and the GI50 (TK-10) was > 100 µM (inactive). For the same compound, the GI50 (U-251) was 2.88 µM (inactive), the GI50 (UACC-257) was > 100 µM (inactive) and the GI50 (UACC-62) was > 100 µM (inactive). For the same compound, the GI50 (UO-31) was 56.9 µM (inactive).
